The source of these data is US20250051347A1, “BIFUNCTIONAL CHIMERIC HETEROCYCLIC COMPOUND AND USE THEREOF AS ANDROGEN RECEPTOR DEGRADER” (Hinova Pharmaceuticals, Inc., priority 2021, published 2025).

Test [1] deals with T1, androgen receptor (AR) splicing variant AR-v7 (Homo sapiens, UniProt P10275).
T1 construct: The degradation activity of compounds on AR-v7 in 22RV1 cells; host or cells: 22RV1 cells
T1 sequence (P10275 1-644 isoform P10275-3): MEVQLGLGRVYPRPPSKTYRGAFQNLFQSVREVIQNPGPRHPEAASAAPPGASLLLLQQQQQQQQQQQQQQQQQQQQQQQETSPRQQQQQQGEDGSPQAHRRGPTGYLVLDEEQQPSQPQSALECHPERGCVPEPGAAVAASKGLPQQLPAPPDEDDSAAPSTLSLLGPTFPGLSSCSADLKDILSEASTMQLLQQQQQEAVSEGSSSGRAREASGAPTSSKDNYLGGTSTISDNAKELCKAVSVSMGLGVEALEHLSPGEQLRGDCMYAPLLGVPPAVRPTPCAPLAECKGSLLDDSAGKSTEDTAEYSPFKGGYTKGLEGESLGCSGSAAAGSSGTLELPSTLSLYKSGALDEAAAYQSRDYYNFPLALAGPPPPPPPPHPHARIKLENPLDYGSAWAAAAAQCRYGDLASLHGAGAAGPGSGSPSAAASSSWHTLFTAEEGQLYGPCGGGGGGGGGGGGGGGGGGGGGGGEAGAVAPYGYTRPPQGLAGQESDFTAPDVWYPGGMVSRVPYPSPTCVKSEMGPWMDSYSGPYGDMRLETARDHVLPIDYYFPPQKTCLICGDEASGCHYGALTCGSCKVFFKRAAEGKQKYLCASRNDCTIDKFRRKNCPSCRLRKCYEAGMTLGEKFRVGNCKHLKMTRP
Kind of test: Degradation activity on androgen receptor splicing variant AR-v7 in 22RV1 cells (ELISA). The following applies: AR-v7 degradation in 22RV1 cells, 48 h, class symbols. It is filed as cell-based.

Test [2] deals with 22RV1 cells. To be noted: Homo sapiens, 22Rv1, 144 h.
[3] abbreviates: read-out: 22RV1 IC50 (nM), 22RV1 cells, 6 days culture, CCK-8, OD 450 nm.

Read-outs that look alike come from different tables or passages of the source.

A word on the DC50: it is the midpoint of the concentration-degradation curve. Read a low DC50 as degradation at low concentration. The term IC50 denotes the concentration that inhibits the measured activity by half.

With `CC(C)(c1ccc(Oc2cnc(-n3nccn3)nc2)cc1)c1ccc(O[C@H]2C[C@H](Nc3ccc4c(c3)C(=O)N(C3CCC(=O)NC3=O)C4=O)C2)cc1` (stereo partly shown) [Example 436, 5-(((1r,3r)-3-(4-(2-(4-((2-(2H-1,2,3-triazol-2-yl)pyrimidin-5-yl)oxy)phenyl)propan-2-yl)phenoxy)cyclobutyl)amino)-2-(2,6-dioxopiperidin-3-yl)isoindolin-1,3-dione], the DC50 in test [1] was below 10 nM. In addition, the IC50 in test [2] (setting [3]) was determined as 6 nM.
`CC(C)(c1ccc(OCCCNc2ccc3c(c2)C(=O)N(C2CCC(=O)NC2=O)C3=O)cc1)c1ccc(OCc2ccnc(NC3CC3)n2)cc1` (stereo not shown) [Example 444, 5-((3-(4-(2-(4-((2-(cyclopropylamino)pyrimidin-4-yl)methoxy)phenyl)propan-2-yl)phenoxy)propyl)amino)-2-(2,6-dioxopiperidin-3-yl)isoindolin-1,3-dione] showed a half-maximal degradation concentration (DC50) in test [1] of 11 to 100 nM. For the same compound, the half-inhibitory concentration (IC50) in test [2] (setting [3]) came to 62 nM.
In test [1], `CC(C)(c1ccc(OCc2ccnc(-n3ccnn3)n2)cc1)c1ccc(O[C@H]2C[C@@H](Nc3ccc4c(c3)C(=O)N(C3CCC(=O)NC3=O)C4=O)C2)cc1` (stereo partly shown) [Example 445, 5-(((1s,3s)-3-(4-(2-(4-((2-(1H-1,2,3-triazol-1-yl)pyrimidin-4-yl)methoxy)phenyl)propan-2-yl)phenoxy)cyclobutyl)amino)-2-(2,6-dioxopiperidin-3-yl)isoindolin-1,3-dione] came in with a half-maximal degradation concentration (DC50) below 10 nM. The IC50 in test [2] (setting [3]) is 5 nM.
For `COc1nccc(COc2ccc(C(C)(C)c3ccc(OC4CC(Nc5ccc6c(c5)C(=O)N(C5CCC(=O)NC5=O)C6=O)C4)cc3)cc2)n1` (stereo not shown) [Example 447, 2-(2,6-dioxopiperidin-3-yl)-5-((3-(4-(2-(4-((2-methoxypyrimidin-4-yl)methoxy)phenyl)propan-2-yl)phenoxy)cyclobutyl)amino) isoindolin-1,3-dione], in that order: below 10 nM and 8 nM.
Regarding `CC1CN(c2nccc(COc3ccc(C(C)(C)c4ccc(OC5CC(Nc6ccc7c(c6)C(=O)N(C6CCC(=O)NC6=O)C7=O)C5)cc4)cc3)n2)CCN1C` (stereo not shown) [Example 448], in test [1], the 50% degradation concentration (DC50) is 11 to 100 nM. Moreover, in test [2] (setting [3]), the IC50 worked out at 11 nM.
For `COc1nccc(COc2ccc(C(C)(C)c3ccc(O[C@H]4C[C@H](Nc5ccc6c(c5)C(=O)N(C5CCC(=O)NC5=O)C6=O)C4)cc3)cc2)n1` (stereo partly shown) [Example 449, 2-(2,6-dioxopiperidin-3-yl)-5-(((1r,3r)-3-(4-(2-(4-((2-methoxypyrimidin-4-yl)methoxy)phenyl)propan-2-yl)phenoxy)cyclobutyl)amino) isoindolin-1,3-dione], the 50% degradation concentration (DC50) in test [1] fell in the range of 11 to 100 nM. Further, the IC50 in test [2] (setting [3]) came out at 10 nM.
In the case of `CC1CN(c2nccc(COc3ccc(C(C)(C)c4ccc(O[C@H]5C[C@H](Nc6ccc7c(c6)C(=O)N(C6CCC(=O)NC6=O)C7=O)C5)cc4)cc3)n2)CCN1C` (stereo partly shown) [Example 450, 5-(((1r,3r)-3-(4-(2-(4-((2-(3,4-dimethylpiperazin-1-yl)pyrimidin-4-yl)methoxy)phenyl)propan-2-yl)phenoxy)cyclobutyl)amino)-2-(2,6-dioxopiperidin-3-yl)isoindolin-1,3-dione], in test [1], the DC50 is 11 to 100 nM. Further, the IC50 in test [2] (setting [3]) was found to be 8 nM.
On to `CC(C)(c1ccc(OCc2ccnc(N3CCNCC3)n2)cc1)c1ccc(OC2CC(Nc3ccc4c(c3)C(=O)N(C3CCC(=O)NC3=O)C4=O)C2)cc1` (stereo not shown) [Example 451, 2-(2,6-dioxopiperidin-3-yl)-5-((3-(4-(2-(4-((2-(piperazin-1-yl)pyrimidin-4-yl)methoxy)phenyl)propan-2-yl)phenoxy)cyclobutyl)amino)isoindolin-1,3-dione], for which, in test [1], the 50% degradation concentration (DC50) is below 10 nM. For the same compound, in test [2] (setting [3]), the IC50 amounted to 11 nM.
In turn, `CC1CN(c2nccc(COc3ccc(C(C)(C)c4ccc(OC5CC(Nc6ccc7c(c6)C(=O)N(C6CCC(=O)NC6=O)C7=O)C5)cc4)cc3)n2)CC(C)N1` (stereo not shown) [Example 452, 5-((3-(4-(2-(4-((2-(3,5-dimethylpiperazin-1-yl)pyrimidin-4-yl)methoxy)phenyl)propan-2-yl)phenoxy)cyclobutyl)amino)-2-(2,6-dioxopiperidin-3-yl)isoindolin-1,3-dione] had a DC50 in test [1] of 11 to 100 nM. Moreover, the half-inhibitory concentration (IC50) in test [2] (setting [3]) was 8 nM.
For `CC(C)(c1ccc(OCc2ccnc(N3CC(O)C3)n2)cc1)c1ccc(O[C@H]2C[C@@H](Nc3ccc4c(c3)C(=O)N(C3CCC(=O)NC3=O)C4=O)C2)cc1` (stereo partly shown) [Example 453], in that order: below 10 nM and 6 nM.
`CC(C)(c1ccc(OCc2ccnc(-n3cnnc3)n2)cc1)c1ccc(O[C@H]2C[C@@H](Nc3ccc4c(c3)C(=O)N(C3CCC(=O)NC3=O)C4=O)C2)cc1` (stereo partly shown) [Example 461] showed a 50% degradation concentration (DC50) in test [1] below 10 nM. Further, in test [2] (setting [3]), the half-inhibitory concentration (IC50) was 11 nM.
As to `Cc1nnc(-c2cccc(COc3ccc(C(C)(C)c4ccc(O[C@H]5C[C@H](Nc6ccc7c(c6)C(=O)N(C6CCC(=O)NC6=O)C7=O)C5)cc4)cc3)n2)o1` (stereo partly shown) [Example 463], in test [1], the DC50 was below 10 nM. Moreover, the IC50 in test [2] (setting [3]) came out at 11 nM.
For `Cc1nnc(-c2nccc(COc3ccc(C(C)(C)c4ccc(O[C@H]5C[C@@H](Nc6ccc7c(c6)C(=O)N(C6CCC(=O)NC6=O)C7=O)C5)cc4)cc3)n2)o1` (stereo partly shown) [Example 465], the DC50 in test [1] was below 10 nM. For the same compound, the concentration for half-maximal inhibition (IC50) in test [2] (setting [3]) stood at 3 nM.
In test [1], `CC(C)(c1ccc(OCc2ccnc(-c3nnco3)n2)cc1)c1ccc(O[C@H]2C[C@H](Nc3ccc4c(c3)C(=O)N(C3CCC(=O)NC3=O)C4=O)C2)cc1` (stereo partly shown) [Example 468, 5-(((1r,3r)-3-(4-(2-(4-((2-(1,3,4-oxadiazol-2-yl)pyrimidin-4-yl)methoxy)phenyl)propan-2-yl)phenoxy)cyclobutyl)amino)-2-(2,6-dioxopiperidin-3-yl)isoindolin-1,3-dione] yielded a DC50 below 10 nM. The IC50 in test [2] (setting [3]) came to 5 nM.
Compound `CC(C)(c1ccc(OCc2cccc(-c3nnco3)n2)cc1)c1ccc(O[C@H]2C[C@H](Nc3ccc4c(c3)C(=O)N(C3CCC(=O)NC3=O)C4=O)C2)cc1` (stereo partly shown) [Example 470, 5-(((1r,3r)-3-(4-(2-(4-((6-(1,3,4-oxadiazol-2-yl)pyridin-2-yl)methoxy)phenyl)propan-2-yl)phenoxy)cyclobutyl)amino)-2-(2,6-dioxopiperidin-3-yl)isoindolin-1,3-dione] registered a DC50 in test [1] below 10 nM. For the same compound, the IC50 in test [2] (setting [3]) amounted to 7 nM.
Regarding `CC(C)(c1ccc(Oc2ccnc(-n3ccnn3)n2)cc1)c1ccc(O[C@H]2C[C@H](Nc3ccc4c(c3)C(=O)N(C3CCC(=O)NC3=O)C4=O)C2)cc1` (stereo partly shown) [Example 471, 5-(((1r,3r)-3-(4-(2-(4-((2-(1H-1,2,3-triazol-1-yl)pyrimidin-4-yl)oxy)phenyl)propan-2-yl)phenoxy)cyclobutyl)amino)-2-(2,6-dioxopiperidin-3-yl)isoindolin-1,3-dione], the 50% degradation concentration (DC50) in test [1] was below 10 nM. For the same compound, the half-inhibitory concentration (IC50) in test [2] (setting [3]) is 17 nM.
For the compound `Cc1nnc(-c2ncc(Oc3ccc(C(C)(C)c4ccc(O[C@H]5C[C@H](Nc6ccc7c(c6)C(=O)N(C6CCC(=O)NC6=O)C7=O)C5)cc4)cc3)cn2)o1` (stereo partly shown) [Example 473], in test [1], the 50% degradation concentration (DC50) lay within 11 to 100 nM. In addition, in test [2] (setting [3]), the half-maximal inhibitory concentration (IC50) amounted to 5 nM.
The compound `CC(C)(c1ccc(Oc2cnc(-n3ccnn3)nc2)cc1)c1ccc(O[C@H]2C[C@H](Nc3ccc4c(c3)C(=O)N(C3CCC(=O)NC3=O)C4=O)C2)cc1` (stereo partly shown) [Example 476] had a DC50 in test [1] of 11 to 100 nM. Moreover, in test [2] (setting [3]), the IC50 was 14 nM.
The like results for `CC(C)(c1ccc(Oc2cncnc2)cc1)c1ccc(O[C@H]2C[C@H](Nc3ccc4c(c3)C(=O)N(C3CCC(=O)NC3=O)C4=O)C2)cc1` (stereo partly shown) [Example 477, 2-(2,6-dioxopiperidin-3-yl)-5-(((1r,3r)-3-(4-(2-(4-(pyrimidin-5-yloxy)phenyl)propan-2-yl)phenoxy)cyclobutyl)amino)isoindolin-1,3-dione] were, in that order, below 10 nM and 9 nM.
The compound `CC(C)(c1ccc(Oc2ccc(CN3CC(F)C3)nn2)cc1)c1ccc(O[C@H]2C[C@H](Nc3ccc4c(c3)C(=O)N(C3CCC(=O)NC3=O)C4=O)C2)cc1` (stereo partly shown) [Example 478] returned a DC50 in test [1] below 10 nM. The IC50 in test [2] (setting [3]) was determined as 6 nM.
For `Cc1nc(-c2ncc(Oc3ccc(C(C)c4ccc(O[C@H]5C[C@H](Nc6ccc7c(c6)C(=O)N(C6CCC(=O)NC6=O)C7=O)C5)cc4)cc3)cn2)no1` (stereo partly shown) [Example 480], in that order: below 10 nM and 12 nM.
Compound `CC(=O)c1nccc(COc2ccc(C(C)(C)c3ccc(O[C@H]4C[C@@H](Nc5ccc6c(c5)C(=O)N(C5CCC(=O)NC5=O)C6=O)C4)cc3)cc2)n1` (stereo partly shown) [Example 491] had a DC50 in test [1] below 10 nM. In addition, the 50% inhibitory concentration (IC50) in test [2] (read-out: 22RV1 IC50 (nM)) amounted to 4 nM.
Take `CC(O)c1nccc(COc2ccc(C(C)(C)c3ccc(O[C@H]4C[C@@H](Nc5ccc6c(c5)C(=O)N(C5CCC(=O)NC5=O)C6=O)C4)cc3)cc2)n1` (stereo partly shown) [Example 492]: in test [1], the DC50 is below 10 nM. The IC50 in test [2] (setting [3]) worked out at 7 nM.
